CNC(=O)c1cc(Oc2ccc(NC(=O)Nc3ccc(Cl)c(C(F)(F)F)c3)c(F)c2)ccn1 gave a solubility (mole fraction) (in acetone, 278.15 K) of 0.0014, a solubility (mole fraction) (in acetone, 283.15 K) of 0.00173 and a solubility (mole fraction) (in acetone, 288.15 K) of 0.00199. It also gave a solubility (mole fraction) (in acetone, 293.15 K) of 0.00247, a solubility (mole fraction) (in acetone, 298.15 K) of 0.00323 and a solubility (mole fraction) (in acetone, 303.15 K) of 0.00375. The solubility (mole fraction) (in acetone, 308.15 K) was 0.00443, the solubility (mole fraction) (in acetone, 313.15 K) was 0.00526 and the solubility (mole fraction) (in acetonitrile, 278.15 K) was 0.00014. It also gave a solubility (mole fraction) (in acetonitrile, 283.15 K) of 0.000162, a solubility (mole fraction) (in acetonitrile, 288.15 K) of 0.000168 and a solubility (mole fraction) (in acetonitrile, 293.15 K) of 0.000203. For the same compound, the solubility (mole fraction) (in acetonitrile, 298.15 K) was 0.000248, the solubility (mole fraction) (in acetonitrile, 303.15 K) was 0.000299 and the solubility (mole fraction) (in acetonitrile, 308.15 K) was 0.000381. For the same compound, the solubility (mole fraction) (in acetonitrile, 313.15 K) was 0.000492, the solubility (mole fraction) (in ethanol, 278.15 K) was 0.000641 and the solubility (mole fraction) (in ethanol, 283.15 K) was 0.000677. It also gave a solubility (mole fraction) (in ethanol, 288.15 K) of 0.000739, a solubility (mole fraction) (in ethanol, 293.15 K) of 0.000865 and a solubility (mole fraction) (in ethanol, 298.15 K) of 0.000911. It also gave a solubility (mole fraction) (in ethanol, 303.15 K) of 0.0011, a solubility (mole fraction) (in ethanol, 308.15 K) of 0.00126 and a solubility (mole fraction) (in ethanol, 313.15 K) of 0.00145. The solubility (mole fraction) (in isopropanol, 278.15 K) was 0.000657, the solubility (mole fraction) (in isopropanol, 283.15 K) was 0.000679 and the solubility (mole fraction) (in isopropanol, 288.15 K) was 0.000698. It also gave a solubility (mole fraction) (in isopropanol, 293.15 K) of 0.000769, a solubility (mole fraction) (in isopropanol, 298.15 K) of 0.000918 and a solubility (mole fraction) (in isopropanol, 303.15 K) of 0.00109. It also gave a solubility (mole fraction) (in isopropanol, 308.15 K) of 0.00137, a solubility (mole fraction) (in isopropanol, 313.15 K) of 0.00161 and a solubility (mole fraction) (in methanol, 278.15 K) of 0.000315. For the same compound, the solubility (mole fraction) (in methanol, 283.15 K) was 0.000351, the solubility (mole fraction) (in methanol, 288.15 K) was 0.00041 and the solubility (mole fraction) (in methanol, 293.15 K) was 0.000422. It also gave a solubility (mole fraction) (in methanol, 298.15 K) of 0.000475, a solubility (mole fraction) (in methanol, 303.15 K) of 0.000581 and a solubility (mole fraction) (in methanol, 308.15 K) of 0.000689. For the same compound, the solubility (mole fraction) (in methanol, 313.15 K) was 0.000797, the solubility (mole fraction) (in n-propanol, 278.15 K) was 0.000701 and the solubility (mole fraction) (in n-propanol, 283.15 K) was 0.000769. The solubility (mole fraction) (in n-propanol, 288.15 K) was 0.000814, the solubility (mole fraction) (in n-propanol, 293.15 K) was 0.000908 and the solubility (mole fraction) (in n-propanol, 298.15 K) was 0.00099. For the same compound, the solubility (mole fraction) (in n-propanol, 303.15 K) was 0.0012, the solubility (mole fraction) (in n-propanol, 308.15 K) was 0.00147 and the solubility (mole fraction) (in n-propanol, 313.15 K) was 0.00172.
